# Measurements: ChEMBL document CHEMBL1862790, “Optimisation of fenarimol series for the treatment of Chagas disease”
# What was measured:
# [1] = DNDI: Cytotoxicity against L-6 rat myoblasts from skeletal muscle cells; details: L6 rat skeletal muscle myoblast cells
# Trypanosoma cruzi [2] = test: microbe, parasite or virus in culture; assay type: functional, Tulahuen LacZ, Clone C4; details: Trypanosoma cruzi, Tulahuen LacZ, Clone C4
# Trypanosoma cruzi [3] = test: microbe, parasite or virus in culture; assay type: functional, organism-based, Tulahuen LacZ, Clone C4; details: Trypanosoma cruzi, Tulahuen LacZ, Clone C4
IC90 (Trypanosoma cruzi [2]),IC50 (Trypanosoma cruzi [3]),Structure (SMILES),IC50 ([1]; IC50),IC50 [1]
600 nM,230 nM,CC(C)(C)NC(=O)N1CCN(C(c2ccc(Cl)cc2)c2cncnc2)CC1 (stereo unspecified),> 100000 nM,
110 nM,60 nM,O=S(=O)(c1ccc(Cl)cc1)N1CCN(C(c2cncnc2)c2ccc(Cl)cc2F)CC1 (stereo unspecified),> 100000 nM,
920 nM,420 nM,O=S(=O)(C1CCCCC1)N1CCC(NC(c2cnccn2)c2ccc(F)cc2F)CC1 (stereo unspecified),> 100000 nM,
300 nM,120 nM,CN(C)C(=O)N1CCN(C(c2ccc(Cl)cc2)c2cccnc2)CC1 (stereo unspecified),> 100000 nM,
830 nM,290 nM,O=C(c1ccc(C(F)(F)F)cc1)N1CCC(NC(c2cnccn2)c2ccc(F)cc2F)CC1 (stereo unspecified),> 100000 nM,
300 nM,100 nM,O=C(NC1CCN(C(c2ccc(C(F)(F)F)cc2)c2cnccn2)CC1)c1ccc(C(F)(F)F)cc1 (stereo unspecified),57400 nM,
2720 nM,830 nM,CCNC(=O)N1CCN(C(c2ccc(Cl)cc2)c2cncnc2)CC1 (stereo unspecified),> 100000 nM,
270 nM,82 nM,O=C(c1ccc(C(F)(F)F)cc1)N1CCC(NC(c2ccc(C(F)(F)F)cc2)c2cnccn2)CC1 (stereo unspecified),39900 nM,
180 nM,55 nM,O=S(=O)(c1ccc(C(F)(F)F)cc1)N1CCN(C(c2ccc(Cl)cc2)c2cccnc2)CC1 (stereo unspecified),51400 nM,
38 nM,18 nM,O=S(=O)(C1CCCCC1)N1CCN(C(c2cncnc2)c2ccc(Cl)cc2F)CC1 (stereo unspecified),61300 nM,
> 1000 nM,680 nM,CS(=O)(=O)N1CCC(NC(c2cnccn2)c2ccc(F)cc2F)CC1 (stereo unspecified),> 100000 nM,
820 nM,360 nM,O=S(=O)(c1ccc(C(F)(F)F)cc1)N1CCC(NC(c2cnccn2)c2ccc(F)cc2F)CC1 (stereo unspecified),62700 nM,
360 nM,190 nM,CCOC(=O)N1CCN(C(c2ccc(Cl)cc2)c2cncnc2)CC1 (stereo unspecified),> 100000 nM,
180 nM,72 nM,O=S(=O)(Cc1ccccc1)N1CCN(C(c2cncnc2)c2ccc(Cl)cc2F)CC1 (stereo unspecified),62400 nM,
36 nM,18 nM,CC(C)c1ccc(S(=O)(=O)N2CCN(C(c3cncnc3)c3ccc(Cl)cc3F)CC2)cc1 (stereo unspecified),> 100000 nM,
620 nM,240 nM,CC(C)(C)CC(=O)N1CCN(C(c2ccc(Cl)cc2)c2cncnc2)CC1 (stereo unspecified),> 100000 nM,
290 nM,130 nM,O=S(=O)(c1ccc(C(F)(F)F)cc1)N1CCC(NC(c2ccc(C(F)(F)F)cc2)c2cnccn2)CC1 (stereo unspecified),40900 nM,
960 nM,560 nM,CC(C)CS(=O)(=O)N1CCC(NC(c2cnccn2)c2ccc(F)cc2F)CC1 (stereo unspecified),> 100000 nM,
250 nM,78 nM,O=C(Nc1ccccc1)N1CCC(NC(c2ccc(Cl)cc2)c2cccnc2)CC1 (stereo unspecified),63700 nM,
550 nM,210 nM,CC(C)c1ccc(S(=O)(=O)N2CCC(NC(c3cnccn3)c3ccc(F)cc3F)CC2)cc1 (stereo unspecified),21800 nM,
230 nM,60 nM,CC(C)(C)NC(=O)N1CCC(NC(c2ccc(Cl)cc2)c2cccnc2)CC1 (stereo unspecified),> 100000 nM,
> 1000 nM,620 nM,CCS(=O)(=O)N1CCC(NC(c2cnccn2)c2ccc(F)cc2F)CC1 (stereo unspecified),> 100000 nM,

IC90 (Trypanosoma cruzi [2]),IC50 (Trypanosoma cruzi [3]),Structure (SMILES),IC50 ([1]; IC50),IC50 [1]
> 1000 nM,850 nM,CC(C)C(=O)N1CCC(NC(c2cnccn2)c2ccc(F)cc2F)CC1 (stereo unspecified),> 100000 nM,
900 nM,530 nM,O=S(=O)(c1ccc(Cl)cc1)N1CCC(NC(c2cnccn2)c2ccc(F)cc2F)CC1 (stereo unspecified),77900 nM,
580 nM,220 nM,O=C(c1ccccc1)N1CCN(C(c2cncnc2)c2ccc(Cl)cc2F)CC1 (stereo unspecified),> 100000 nM,
280 nM,100 nM,O=C(NCC1CCCCC1)c1cccc(C(O)(c2ccc(Cl)cc2)c2cccnc2)c1 (stereo unspecified),> 100000 nM,
940 nM,480 nM,CN(C)C(=O)N1CCN(C(c2cncnc2)c2ccc(Cl)cc2F)CC1 (stereo unspecified),> 100000 nM,
88 nM,28 nM,CC(C)S(=O)(=O)N1CCN(C(c2ccc(Cl)cc2)c2cccnc2)CC1 (stereo unspecified),> 100000 nM,
86 nM,25 nM,O=C(Nc1ccc(Cl)cc1)N1CCC(NC(c2ccc(Cl)cc2)c2cccnc2)CC1 (stereo unspecified),43400 nM,
790 nM,340 nM,CC(C)S(=O)(=O)N1CCC(NC(c2cnccn2)c2ccc(F)cc2F)CC1 (stereo unspecified),> 100000 nM,
3860 nM,1380 nM,O=C(C1CC1)N1CCC(NC(c2cnccn2)c2ccc(F)cc2F)CC1 (stereo unspecified),> 100000 nM,
> 1000 nM,620 nM,CN(C)C(=O)N1CCN(C(c2ccc(Cl)cc2)c2cncnc2)CC1 (stereo unspecified),> 100000 nM,
880 nM,490 nM,CCS(=O)(=O)N1CCC(NC(c2ccc(C(F)(F)F)cc2)c2cnccn2)CC1 (stereo unspecified),> 100000 nM,
340 nM,170 nM,CN(C)C(=O)N1CCC(NC(c2ccc(Cl)cc2)c2cccnc2)CC1 (stereo unspecified),> 100000 nM,
140 nM,32 nM,O=S(=O)(Cc1ccccc1)N1CCN(C(c2ccc(Cl)cc2)c2cccnc2)CC1 (stereo unspecified),57700 nM,
490 nM,230 nM,CC(C)C(=O)N1CCC(NC(c2ccc(C(F)(F)F)cc2)c2cnccn2)CC1 (stereo unspecified),> 100000 nM,
15 nM,5 nM,CC(C)c1ccc(NC(=O)N2CCC(NC(c3ccc(Cl)cc3)c3cccnc3)CC2)cc1 (stereo unspecified),19700 nM,
940 nM,560 nM,CC(C)S(=O)(=O)NC1CCN(C(c2ccc(C(F)(F)F)cc2)c2cnccn2)CC1 (stereo unspecified),> 100000 nM,
300 nM,150 nM,O=C(C1CCCCC1)N1CCN(C(c2cncnc2)c2ccc(Cl)cc2F)CC1 (stereo unspecified),> 100000 nM,
> 1000 nM,> 1000 nM,CN(C)C(=O)N1CCC(NC(c2cnccn2)c2ccc(F)cc2F)CC1 (stereo unspecified),> 100000 nM,
820 nM,360 nM,O=C(Cc1ccccc1)N1CCC(NC(c2cnccn2)c2ccc(F)cc2F)CC1 (stereo unspecified),> 100000 nM,
200 nM,62 nM,CC(C)CS(=O)(=O)N1CCN(C(c2ccc(Cl)cc2)c2cncnc2)CC1 (stereo unspecified),92700 nM,
> 1000 nM,> 1000 nM,CCC(=O)N1CCC(NC(c2ccc(C(F)(F)F)cc2)c2cnccn2)CC1 (stereo unspecified),> 100000 nM,
920 nM,500 nM,CN(C)C(=O)N1CCC(NC(c2ccc(C(F)(F)F)cc2)c2cnccn2)CC1 (stereo unspecified),> 100000 nM,

IC90 (Trypanosoma cruzi [2]),IC50 (Trypanosoma cruzi [3]),Structure (SMILES),IC50 ([1]; IC50),IC50 [1]
230 nM,78 nM,O=C(NC1CCN(C(c2ccc(C(F)(F)F)cc2)c2cnccn2)CC1)c1ccc(Cl)cc1 (stereo unspecified),52900 nM,
880 nM,400 nM,O=S(=O)(c1ccccc1)N1CCC(NC(c2cnccn2)c2ccc(F)cc2F)CC1 (stereo unspecified),72200 nM,
> 1000 nM,> 1000 nM,CCC(=O)N1CCC(NC(c2cnccn2)c2ccc(F)cc2F)CC1 (stereo unspecified),> 100000 nM,
370 nM,190 nM,O=C(Cc1ccccc1)NC1CCN(C(c2ccc(C(F)(F)F)cc2)c2cnccn2)CC1 (stereo unspecified),> 100000 nM,
> 1000 nM,550 nM,CC(C)CC(=O)N1CCC(NC(c2cnccn2)c2ccc(F)cc2F)CC1 (stereo unspecified),> 100000 nM,
120 nM,58 nM,CCOC(=O)N1CCN(C(c2ccc(Cl)cc2)c2cccnc2)CC1 (stereo unspecified),83200 nM,
36 nM,11 nM,CC(C)c1ccc(NC(=O)N2CCN(C(c3ccc(Cl)cc3)c3cncnc3)CC2)cc1 (stereo unspecified),36000 nM,
190 nM,70 nM,CCOC(=O)N1CCC(NC(c2ccc(Cl)cc2)c2cccnc2)CC1 (stereo unspecified),> 100000 nM,
860 nM,440 nM,CCC(=O)N1CCN(C(c2cncnc2)c2ccc(Cl)cc2F)CC1 (stereo unspecified),> 100000 nM,
220 nM,76 nM,O=S(=O)(c1ccc(C(F)(F)F)cc1)N1CCN(C(c2cncnc2)c2ccc(Cl)cc2F)CC1 (stereo unspecified),74700 nM,
310 nM,120 nM,O=C(Nc1ccccc1)N1CCN(C(c2ccc(Cl)cc2)c2cncnc2)CC1 (stereo unspecified),83700 nM,
780 nM,280 nM,O=S(=O)(NC1CCN(C(c2ccc(C(F)(F)F)cc2)c2cnccn2)CC1)C1CCCCC1 (stereo unspecified),57900 nM,
400 nM,190 nM,O=S(=O)(Cc1ccccc1)N1CCC(NC(c2cnccn2)c2ccc(F)cc2F)CC1 (stereo unspecified),> 100000 nM,
> 1000 nM,680 nM,O=C(c1ccccc1)N1CCC(NC(c2cnccn2)c2ccc(F)cc2F)CC1 (stereo unspecified),> 100000 nM,
990 nM,570 nM,O=C(C1CCCCC1)N1CCC(NC(c2cnccn2)c2ccc(F)cc2F)CC1 (stereo unspecified),> 100000 nM,
700 nM,260 nM,O=C(c1ccc(Cl)cc1)N1CCC(NC(c2cnccn2)c2ccc(F)cc2F)CC1 (stereo unspecified),> 100000 nM,
700 nM,280 nM,CC(C)CC(=O)NC1CCN(C(c2ccc(C(F)(F)F)cc2)c2cnccn2)CC1 (stereo unspecified),> 100000 nM,
99 nM,34 nM,O=C(OCc1ccccc1)N1CCN(C(c2ccc(Cl)cc2)c2cccnc2)CC1 (stereo unspecified),51600 nM,
270 nM,100 nM,CC(C)c1ccc(S(=O)(=O)N2CCC(NC(c3ccc(C(F)(F)F)cc3)c3cnccn3)CC2)cc1 (stereo unspecified),22000 nM,
570 nM,220 nM,CC(C)S(=O)(=O)N1CCC(NC(c2ccc(C(F)(F)F)cc2)c2cnccn2)CC1 (stereo unspecified),> 100000 nM,
940 nM,560 nM,CC(C)C(=O)NC1CCN(C(c2ccc(C(F)(F)F)cc2)c2cnccn2)CC1 (stereo unspecified),> 100000 nM,
330 nM,120 nM,CC(C)S(=O)(=O)N1CCN(C(c2cncnc2)c2ccc(Cl)cc2F)CC1 (stereo unspecified),> 100000 nM,

Structure (SMILES),IC90 (Trypanosoma cruzi [2]),IC50 (Trypanosoma cruzi [3]),IC50 ([1]; IC50),IC50 [1]
O=C(Cc1ccccc1)N1CCN(C(c2ccc(Cl)cc2)c2cncnc2)CC1 (stereo unspecified),850 nM,500 nM,,69500 nM
